Test results from US10245262B2, “Immunological reagents and uses therefor” (THE UNIVERSITY OF QUEENSLAND, priority 2014, dated 2019).
Read-outs that look alike come from different tables or passages of the source.

Tests used:
human MR1 = target: T1, human MR1 (Homo sapiens, UniProt Q95460, C283S); assay: Refolding of MR1 and β2m with ligand; format: binding
T1 construct: Soluble human MR1 a.a; made in house

Jurkat.MAIT cells = assay: Activation of Jurkat.MAIT cells (CD69 upregulation) co-incubated with C1R.MR1 cells; format: cell-based; conditions: for Jurkat.MAIT activation compared to 5-A-RU added by itself: compound added with 5-A-RU to C1R.MR1 cells
Experimental: (§1) Jurkat cells transduced with genes encoding a MAIT TCR comprising the TRAV1-2-TRAJ33 invariant α chain, and a TRBV6-1 β chain, or SKW cells transduced with genes encoding the TRAV1-2-TRAJ33 invariant α chain with either w.t. Tyr95 or mutated Tyr95Ala or Tyr95Phe residues, paired with a TRBV6-1 β chain, were tested for activation by co-incubation with bacterial culture supernatant or compounds and C1R antigen presenting cells expressing MR1 (CIR.MR1, with Jurkat.MAIT cells), or C1R cells (SKW.MAIT cells) for 16 hr. Cells were subsequently stained with PE-Cy7-conjugated anti-CD3 (eBioscience), and APC-conjugated anti-CD69 (BD) antibodies as well as biotinylated anti-MR1 mAb 26.5 (Huang S. et al (2005)), followed by Streptavidin-PE (BD), before analysis by flow cytometry. Activation of Jurkat.MAIT or SKW.MAIT cells was measured by an increase in surface CD69 expression. MR1 expression was detected on gated C1R.MR1 cells in the same assay.

SKW.MAIT cells = assay: Activation of wild-type, Y95A or Y95F mutant SKW.MAIT cells with C1R cells; format: cell-based; conditions: compound added to C1R cells
Text: FIG. 4 is a graph showing MR1-Ag tetramers and MAIT activation. […] (c) EICs of m/z 315.09, or m/z 317.10. (d) (i) Activation assay and (ii) MR1 upregulation with 5-A-RU, methylglyoxal (MG), butane-2,3-dione (BD), glyoxal (G), or rRL-6-CH2OH. MFI of 26.5-PE antibody staining (e) (i) CD69 upregulation and (ii) MR1 upregulation with 5-A-RU, MG, BD, or G. MFI of 26.5-PE. (f) Activation of wild-type, Y95A, or Y95F mutant SKW.MAIT cells by 5-A-RU. Mean of triplicates with SEM. Experiments were performed at least twice (b, c, f) or 3 times (a, d, e).
as §1, with “Cells were subsequently stained with PE-Cy7-conjugated anti-CD3 (eBioscience), and APC-conjugated anti-CD69 (BD) antibodies as well as biotinylated anti-MR1 mAb 26.5 (Huang S. et al (2005)), followed by Streptavidin-PE (BD), before analysis by flow cytometry.” left out

C1R.MR1 cells = assay: Detection of MR1 expression on C1R.MR1 cells (mAb 26.5 staining); format: cell-based; conditions: for MR1 upregulation compared to 5-A-RU added by itself: compound added with 5-A-RU to C1R.MR1 cells
Experimental: as §1

MR1 [1] = assay: Crystal structure of MAIT TCR-MR1-Ag complexes; format: binding, human
Experimental: Crystals of the soluble MAIT TCR-MR1-Ag complexes were obtained using the hanging drop vapour diffusion method. The MR1-2M-5-OP-RU, MR1-2M-5-OE-RU, MR1, MR1-K43A-2M-5-OP-RU and MAIT TCR were concentrated to 4 mg/ml, mixed in a 1:1 molar ratio, then […] of a precipitant solution consisting 0.1 M bis-tris propane pH 6.3, 0.2 M sodium acetate and varying concentrations of PEG 3350 between 8-14% w/v. Crystals were observed after incubation at 20° C. for 24 hours in dark conditions and cryoprotected prior to diffraction experiments by soaking in the crystallisation condition modified with between 10-15% v/v glycerol before cooling to 100K. Diffraction images were collected at the Australian Synchrotron MX2 beamline diffracting in a C2 spacegroup to 2.50 Å, 2.10 Å and 2.20 Å for the MR1-2M-5-OP-RU, MR1-2M-5-OE-RU, and MR1-K43A-2M-5-OP-RU complexes with the MAIT TCR respectively. The data were processed using Mosflm version 7.0.9 and scaled using AIMLESS or SCALA (MR1-K43A-2M-5-OP-RU only) from the CCP4 Suite. The phase problem was solved by molecular replacement using PHASER (McCoy A. J. (2007)), using MR1 ternary complex (PDB code 4L4T) (Patel O. et al (2013)) with CDR loops and ligands removed and using the Rfree reflection set from the model. […]

[2] = for half-life: buffer
Experimental: FIG. 7 is a graph showing stability of 5-OP-RU (a) Reaction between 5-A-RU (0.5 mM) and methylglyoxal (3 eq) at pH 6.8, 37° C. in MilliQ water. RL-6-Me represents 6-methyl-8-D-ribityllumazine. (b) Stability of purified 5-OP-RU (65 μM) at pH 6.8 and 37° C. […] (c) Stability of purified 5-OP-RU (65 μM) at variable pH in aqueous TBS buffer (10 mM Tris, 150 mM NaCl, pH 8.0), MilliQ water (pH 6.8), or ammonium acetate buffer (20 mM, pH 5.4) at 15° C.
The purified 5-OP-RU was dissolved in aqueous TBS buffer (10 mM Tris, 150 mM NaCl, pH 8.0), MilliQ water (pH 6.8), or aqueous ammonium acetate buffer (20 mM, pH 5.4). The consumption of 5-OP-RU was immediately monitored by LCMS. The initial concentration was quantified by comparing to a standard solution of known concentration.

MAIT cells = assay: MAIT cell accumulation in lungs after intranasal S. Typhimurium infection; format: in vivo, mice; conditions: with BR509ΔribDH (10^7) i.n.; 200 μl of 1.52 μM i.v. at d1, d3, d5; day 7 post infection
MR1 [3] = conditions: cited from earlier work
[4] = compound added alone to C1R.MR1 cells

T1 sequence (Q95460 with tags, fused parts or gaps C283S): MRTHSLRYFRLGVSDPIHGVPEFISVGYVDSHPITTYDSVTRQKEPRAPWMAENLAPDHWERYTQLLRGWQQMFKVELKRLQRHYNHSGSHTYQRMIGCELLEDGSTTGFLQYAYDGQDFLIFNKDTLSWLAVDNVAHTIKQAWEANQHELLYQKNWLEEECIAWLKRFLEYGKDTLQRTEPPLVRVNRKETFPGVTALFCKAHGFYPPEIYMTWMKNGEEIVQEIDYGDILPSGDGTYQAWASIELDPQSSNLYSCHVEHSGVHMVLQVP
T1 sequence (P61769 21-119 partner): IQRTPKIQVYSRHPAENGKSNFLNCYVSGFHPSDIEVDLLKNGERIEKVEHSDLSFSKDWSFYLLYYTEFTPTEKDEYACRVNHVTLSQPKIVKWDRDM

Nc1c(NC[C@H](O)[C@H](O)[C@H](O)CO)[nH]c(=O)[nH]c1=O [5-A-RU, 5-amino-6-D-ribitylaminouracil]
MR1-ligand complex on refolding MR1 with the compound alone (human MR1): undetectable | activation of Jurkat.MAIT cells (Jurkat.MAIT cells; [4]): activation of Jurkat.MAIT cells | recognition by SKW.MAIT cells with Tyr95α mutated to Ala95 or Phe95 (SKW.MAIT cells): ablated recognition | MR1 cell surface upregulation (C1R.MR1 cells; [4]): MR1 cell surface upregulation

O=CC=Nc1c(NC[C@H](O)[C@H](O)[C@H](O)CO)[nH]c(=O)[nH]c1=O [5-OE-RU, 5-(2-oxoethylideneamino)-6-D-ribitylaminouracil]
binding mode in the MR1 cleft (MR1 [1]): formed a Schiff base with Lys43 of MR1 | stability (in words) [2]: relatively unstable

CC(=O)C=Nc1c(NC[C@H](O)[C@H](O)[C@H](O)CO)[nH]c(=O)[nH]c1=O [5-OP-RU, 5-(2-oxopropylideneamino)-6-D-ribitylaminouracil]
binding mode in the MR1 cleft (MR1 [1]): formed a Schiff base with Lys43 of MR1 | accumulation of MAIT cells in lungs (MAIT cells): accumulation is observed | half-life ([2]; pH 5.4): 49 min | half-life ([2]; pH 6.8): around 2 h

Cc1nc2c(=O)[nH]c(=O)nc-2n(C[C@H](O)[C@H](O)[C@H](O)CO)c1O [RL-6-Me-7-OH, 7-hydroxy-6-methyl-8-D-ribityllumazine]
binding mode in the MR1 cleft (MR1 [3]): non-covalently bound within MR1

CC(=O)C(C)=O [butane-2,3-dione]
MR1-Ag complex on refolding MR1 in the presence of 5-A-RU and the compound (human MR1): failed to yield any MR1-Ag complexes | Jurkat.MAIT activation compared to 5-A-RU added by itself (Jurkat.MAIT cells): nor was there an increase in Jurkat.MAIT activation | MR1 upregulation compared to 5-A-RU added by itself (C1R.MR1 cells): not enhanced

O=CC=O [glyoxal]
MR1-Ag complex on refolding MR1 in the presence of 5-A-RU and the compound (human MR1): led to a correctly folded MR1-Ag complex | Jurkat.MAIT activation compared to 5-A-RU added by itself (Jurkat.MAIT cells): increase in Jurkat.MAIT activation | MR1 upregulation compared to 5-A-RU added by itself (C1R.MR1 cells): further increase in MR1 upregulation

CC(=O)C=O [methylglyoxal]
MR1-Ag complex on refolding MR1 in the presence of 5-A-RU and the compound (human MR1): led to a correctly folded MR1-Ag complex | Jurkat.MAIT activation compared to 5-A-RU added by itself (Jurkat.MAIT cells): increase in Jurkat.MAIT activation | MR1 upregulation compared to 5-A-RU added by itself (C1R.MR1 cells): further increase in MR1 upregulation

Cc1cc2nc3c(=O)[nH]c(=O)nc-3n(C[C@H](O)[C@H](O)[C@H](O)CO)c2cc1C [riboflavin]
effect of riboflavin added during culture of NZ9000 on MAIT cell activation by the supernatant (Jurkat.MAIT cells; L. lactis NZ9000 supernatant, 3 μg/ml riboflavin): inhibited MAIT cell activation

reduced 6-hydroxymethyl-8-D-ribityllumazine [rRL-6-CH2OH]
recognition by SKW.MAIT cells with Tyr95α mutated to Ala95 or Phe95 (SKW.MAIT cells): ablated recognition
